“Also recorded” adds a separate entry of the source.
How the values were obtained:
[1] = system: ID8 murine ovarian tumor cells; experiment: Annexin V/propidium iodide flow cytometry of chemotherapy-treated ID8 cells; assay type: cell-based; details: annexin V/PI; cisplatin 30 μM 48 hours, carboplatin 100 μM 72 hours, paclitaxel 1 μM 48 hours
Protocol: Chemotherapy-generated murine (ID8) and human (OVCAR5) ovarian tumor cell debris were prepared by re-feeding 70% confluent T150 flasks with complete medium plus 1 μM paclitaxel (Cayman Chemical, Ann Arbor, MI) or 100 μM carboplatin (Sigma Aldrich, Natick, MA) and incubating for 48 or 72 hours, respectively, at 37° C. Cisplatin-generated ID8 debris was prepared by re-feeding 70% confluent T150 flasks with complete medium plus 30 μM cisplatin (Sigma Aldrich, Natick, MA) and incubating for 48 hours at 37° C. The resulting floating population (e.g., dead cells or “debris”) was collected, counted via hemocytometer, and pelleted. The dead cells were resuspended with phosphate-buffered saline (PBS), pelleted, and resuspended again at the desired concentration in PBS.
Murine (ID8) or human (OVCAR5) ovarian tumor cells were treated with vehicle or a chemotherapeutic agent (e.g., cisplatin, carboplatin, or paclitaxel) as described. B/CMBA.Ov murine ovarian epithelial cells were treated with vehicle or PTUPB (1 or 5 μM) for 24 hours. The floating population (e.g., dead cells or “debris”) was collected, and the remaining adhered cells were trypsinized and combined with the dead cells. RAW264.7 murine macrophages were treated with vehicle or PTUPB (5 μM) for 24 hours. The floating population was collected and the remaining adhered cells were detached using a cell scraper (Corning Inc., Corning, NY) and combined with the dead cells. Cells were counted via hemocytometer, pelleted, and resuspended in PBS at 1×10^6 cells/mL. Next, 2×10^5 cells were stained with annexin V and propidium iodide (PI) according to FITC Annexin V/Dead Cell Apoptosis Kit protocol (Life Technologies, Carlsbad, CA). Staining was assessed using the BD LSR Fortessa (BD Biosciences, San Jose, CA) at the Dana-Farber Cancer Institute Jimmy Fund Flow Cytometry Core, and analyzed using FlowJo software (Tree Star Inc., Ashland, OR). Experiments were performed three times with similar results.

[2] = system: RAW264.7 murine macrophages; assay type: cell-based; details: 5 μM, 2 hours pre-treatment

Row | Compound | cell death in ID8 ovarian cells [1] [%] | cytokine storm released by macrophages stimulated with aflatoxin B1-generated Hepa 1-6 debris [2]
1 | N.N.[Cl][Pt][Cl] [Cisplatin] | 67 | 
2 | COc1ccc(-n2nc(CCCNC(=O)Nc3ccc(C(F)(F)F)cc3)cc2-c2ccccc2)cc1 [Ome-21i, 1-(3-(1-(4-methoxyphenyl)-5-phenyl-1H-pyrazol-3-yl)propyl)-3-(4-(trifluoromethyl)phenyl)urea] |  | shows potency in down-regulating; also recorded: inhibited
3 | N.N.O=C([O-])C1(C(=O)[O-])CCC1.[Pt+2] [carboplatin] | 78 | 
4 | CC(=O)O[C@H]1C(=O)[C@@]2(C)[C@H]([C@H](OC(=O)c3ccccc3)[C@]3(O)C[C@H](OC(=O)[C@H](O)[C@@H](NC(=O)c4ccccc4)c4ccccc4)C(C)=C1C3(C)C)[C@]1(OC(C)=O)CO[C@@H]1C[C@@H]2O [paclitaxel] | 56 | 

From patent US12485107B2, “Methods for the prevention or treatment of cytokine storm” (Beth Israel Deaconess Medical Center, Inc., priority 2019, dated 2025)
